Data reported in publication PMC9653733, “Characterization of a Potent, Selective, and Safe Inhibitor, Ac15(Az8)2, in Reversing Multidrug Resistance Mediated by Breast Cancer Resistance Protein (BCRP/ABCG2)” (International Journal of Molecular Sciences, 2022).
Values joined by “and” are separate entries in the source; they are usually repeats but may differ in a detail not shown here. Equal entries are not always repeated.

Columns and labels:
S1M180 cells = assay: Cytotoxicity of anticancer drugs in S1M180 (0.1% DMSO); format: cell-based, human
Description: In total, 6500 cells of S1M180 or MCF7-MX100 were incubated with various doses of topotecan or DOX and modulators. The final volume in each well of 96-well plates was 200 µL. The plates were then incubated for 5 days at 37 °C. The CellTiter 96 AQueous Assay (Promega) was used to measure cell proliferation. According to the manufacturer’s instructions, MTS (2 mg/mL) and PMS (0.92 mg/mL) were mixed in a ratio of 20:1. An aliquot (10 μL) of the freshly prepared MTS/PMS mixture was added into each well, and the plate was incubated for 2 h at 37 °C. Optical absorbance at 490 nm was then recorded with microplate absorbance reader (Bio-Rad). IC50 values were calculated from the dose-response curves of MTS assays (Prism 4.0).

S1 cells = assay: Cytotoxicity of anticancer drugs in parental S1 (0.1% DMSO); format: cell-based, human
BCRP (S1M180 cells) = target: T1, BCRP (S1M180 cells) (Homo sapiens, UniProt Q9UNQ0, R482G); assay: Drug accumulation assay in S1M180; format: cell-based; settings: 20 µM DOX, 1 h; p < 0.001
T1 construct: endogenous in cells; host or cells: S1M180 (human colon carcinoma, mitoxantrone-selected)
T1 sequence (Q9UNQ0 1-655 R482G): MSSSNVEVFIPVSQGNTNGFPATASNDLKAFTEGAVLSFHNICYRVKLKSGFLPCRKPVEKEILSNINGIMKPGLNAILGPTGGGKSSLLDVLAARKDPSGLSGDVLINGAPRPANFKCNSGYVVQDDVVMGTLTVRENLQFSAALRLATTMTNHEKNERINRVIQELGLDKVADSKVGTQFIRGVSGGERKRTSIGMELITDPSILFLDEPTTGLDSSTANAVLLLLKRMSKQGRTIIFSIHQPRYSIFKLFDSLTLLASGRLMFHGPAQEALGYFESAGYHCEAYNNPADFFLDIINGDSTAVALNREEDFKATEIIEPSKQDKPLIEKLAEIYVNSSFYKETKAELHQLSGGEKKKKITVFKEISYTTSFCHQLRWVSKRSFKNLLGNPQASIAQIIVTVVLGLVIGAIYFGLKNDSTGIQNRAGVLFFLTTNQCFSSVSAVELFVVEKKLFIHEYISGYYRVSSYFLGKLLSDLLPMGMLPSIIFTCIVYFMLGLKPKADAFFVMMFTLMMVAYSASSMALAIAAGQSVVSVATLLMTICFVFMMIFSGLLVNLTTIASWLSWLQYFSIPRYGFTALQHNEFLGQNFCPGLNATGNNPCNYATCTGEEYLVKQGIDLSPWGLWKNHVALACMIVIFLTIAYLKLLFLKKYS
Description: Figure 2 Effect of Ac15(Az8)2 on intracellular accumulation of BCRP-substrates in S1 and S1M180 cells. Cells were pre-treated with 0.1% DMSO, 100 nM, or 1000 nM Ac15(Az8)2 and then incubated with BCRP substrates. (A) Topotecan accumulation. (B) DOX accumulation. The intracellular level of drug after treatment was normalized to that of S1 cells after incubating with 0.1% DMSO. Student unpaired two-tailed t-test was conducted as indicated (** p < 0.01, *** p < 0.001). (C) To measure DOX efflux, S1M180 cells were pre-incubated with medium containing 20 μM DOX for 1 h at 37 °C. Cells were then washed and further incubated with or without 1 µM of Ac15(Az8)2. At 0, 5, 10, 30, 60, 120, and 180 min, the cells were harvested to measure the intracellular DOX level. (D) To determine intracellular Ac15(Az8)2 concentration, 1 × 10^7 cells were incubated with 1 µM of Ac15(Az8)2 at 37 °C for 2 h. Cells were then washed with ice-cold PBS. To the cell pellet, acetonitrile was added to lyse the cells, and the supernatant was saved for Ac15(Az8)2 determination using UPLC–MS/MS.
Briefly, 1 × 10^6 cells of S1 and S1M180 cells were pre-incubated with 100 nM or 1000 nM Ac15(Az8)2 for 2 h and followed by 50 µM of topotecan or 20 µM of DOX for 1-h incubation. DMSO at 0.1% was used as a negative control. After incubation, the cells were spun down and washed with cold PBS, pH7.4 for 2 times and lysed with 100 μL of lysis buffer (0.75 M HCl, 0.2% Triton-X100 in isopropanol) with vigorous vortex. The lysate was further incubated at 37 °C for 20 min. After incubation, the lysate was spun down, and 100 μL of supernatant was saved and seeded into a black 96-well microtiter plate. The fluorescence level of DOX was determined by a fluorescence microplate reader (BMG Technologies) using excitation and an emission wavelength pair of 460 nm and 610 nm.

BCRP (MCF7-MX100 cells) = settings: concentration reducing IC50 of anticancer drug by half; mean ± S.D.; ref [42]; read-out: EC50 needed for reversing BCRP-mediated topotecan resistance, MCF7-MX100; cited from earlier work
MRP1 (2008/MRP1 cells) = settings: mean ± S.D.; ref [42]; read-out: EC50 needed for reversing MRP1-mediated DOX resistance, 2008/MRP1; cited from earlier work
L929 = settings: normal mouse fibroblast cells; mean ± S.D.; ref [42]; read-out: IC50 towards L929; cited from earlier work

COc1cccc2c1C(=O)c1c(O)c3c(c(O)c1C2=O)C[C@@](O)(C(=O)CO)C[C@@H]3O[C@H]1C[C@H](N)[C@H](O)[C@H](C)O1 [DOX, doxorubicin]
IC50 (S1M180 cells; Homo sapiens, S1-M1-80, S1M180 + 0.1% DMSO, mean ± S.D., n = 3, read-out: IC50 of DOX): 13.4 µM | RF (Relative Fold), DOX (S1M180 cells; S1M180 + 0.1% DMSO (reference)): 1.0 | IC50 (S1 cells; Homo sapiens, S1 + 0.1% DMSO, mean ± S.D., n = 3, read-out: IC50 of DOX): 100 ± 20 nM | RF (Relative Fold), DOX: resistance of S1M180 compared to parental S1 (S1 cells; S1 + 0.1% DMSO vs S1M180 + 0.1% DMSO): 133.7 | DOX accumulation in S1M180, fold less than parental S1 (BCRP (S1M180 cells)): ~4.6 fold

COc1ccc2c3c([nH]c2c1)[C@H](CC(C)C)N1C(=O)[C@H](CCC(=O)OC(C)(C)C)NC(=O)[C@@H]1C3 [Ko143, reference compound]
EC50 (BCRP (MCF7-MX100 cells)): […] | EC50 (MRP1 (2008/MRP1 cells)): 1950 ± 354 nM | IC50 (L929): 29 µM and 29.2 µM
